According to paper PMC7395068, “The evolution of strategies to minimise the risk of human drug-induced liver injury (DILI) in drug discovery and development” (Archives of Toxicology, 2020):
Read-outs that look alike come from different tables or passages of the source.

Experiments:
[1] = tested on: hLiMTs; conditions: cited from earlier work
[2] = tested on: hLiMTs; test: Combined HCI (HCS) and cellular ATP 3D assay in hLiMTs; conditions: for AC50 / minimal effective concentration: Homo sapiens
[3] = tested on: THLE-Null and THLE-3A4 cells; conditions: cited from earlier work
[4] = Plasma free fraction (fu) and unbound Cmax (Cmax,u); assay type: in vitro ADME, human
Procedure: The prediction of DILI severity was evaluated further using the 3D combined HCI assays using plasma-free fraction. The majority of fu values were obtained from literature, when unavailable in-house prediction was utilised. Unbound plasma Cmax concentrations (Cmax,u) were derived by multiplying total plasma Cmax with the corresponding free fraction (fu) for each compound.

[5] = tested on: HepG2 cells, primary human hepatocytes; conditions: cited from earlier work
[6] = tested on: HepG2 cells; conditions: cited from earlier work
[7] = tested on: THLE or HepG2 cells, isolated mitochondria, BSEP; conditions: cited from earlier work
[8] = tested on: PHH; conditions: cited from earlier work
[9] = tested on: Upcyte human hepatocytes; conditions: cited from earlier work
[10] = cited from earlier work
[11] = tested on: human hepatocytes; conditions: cited from earlier work
[12] = cited from earlier work; remark: listed apart in the source
[13] = tested on: rBsep; conditions: cited from earlier work
[14] = tested on: HepaRG spheroids; test: Combined HCI (HCS) and cellular ATP 3D assay in HepaRG spheroids; conditions: for AC50 / minimal effective concentration: Homo sapiens
[15] = cited from earlier work; remark: listed apart in the source
[16] = tested on: HepG2 cells; conditions: cited from earlier work; remark: listed apart in the source
[17] = plasma free fraction; cited from earlier work
[18] = tested on: PHH spheroids; conditions: cited from earlier work
[19] = cited from earlier work; remark: listed apart in the source
[20] = tested on: HepG2 C3A spheroid, BSEP, Glu/Gal in HepG2 cells, bioactivation; conditions: cited from earlier work
[21] = tested on: hLiMTs
[22] = tested on: primary human hepatocytes, NIH3T3 fibroblasts, BSEP, CYP3A4; conditions: cited from earlier work
[23] = tested on: HepaRG spheroids
[24] = In vitro Assay, ref Proctor 2017
[25] = Microtissue model structural based (HCI), combined HCS and ATP, MEC < 25 × Cmax.tot cut-off
[26] = In vitro Assay, ref Gustafsson 2014
[27] = Modeled in vitro assays (cytotoxicity, mitochondrial dysfunction, BSEP), ref Aleo et al. 2019
[28] = In vitro Assay, ref Dawson 2012
[29] = HepaRG, read-out: ATP endpoint AC50
[30] = HepaRG, read-out: ATP endpoint MEC
[31] = HepaRG, read-out: HCS endpoint AC50
[32] = HepaRG, read-out: HCS endpoint MEC

Cn1cnc([N+](=O)[O-])c1Sc1ncnc2nc[nH]c12 [azathioprine]
hLiMTs ATP <100uM [1, 24]: +VE (IC50 threshold of 100 µM) | hLiMTs/100xCmax, Proctor (2017) ([1]; hLiMTs, ATP, IC50 < 100 × Cmax.tot, ref Proctor et al. 2017): +VE (IC50 < 100 × Cmax.tot) | hLiMTs/100uM, Proctor (2017) ([1]; hLiMTs, ATP, IC50 threshold 100 µM, ref Proctor et al. 2017): +VE (IC50 threshold of 100 µM) | AC50 ([2]; read-out: ATP endpoint AC50): 1.18 µM | minimal effective concentration ([2]; read-out: ATP endpoint MEC): 0.361 µM | AC50 ([2]; read-out: HCS endpoint AC50): 41.6 µM | minimal effective concentration ([2]; read-out: HCS endpoint MEC): 1.58 µM | DILI prediction hLiMTs (HCS-MEC) [2, 25]: +VE (MEC < 25 × Cmax.tot cut-off) | hLiMTs <25x Avg Cmax ATP ([2]; hLiMTs, ATP endpoint, cut-off <25x Avg Cmax): +ve | hLiMTs <100x Avg Cmaxu ATP ([2]; hLiMTs, ATP endpoint, cut-off <100x Avg Cmaxu): +ve (<100x Avg Cmaxu) | hLiMTs <25x Avg Cmax HCS ([2]; hLiMTs, HCS endpoints, cut-off <25x Avg Cmax): +ve | hLiMTs <100x Avg Cmaxu HCS ([2]; hLiMTs, HCS endpoints, cut-off <100x Avg Cmaxu): +ve (<100x Avg Cmaxu) | hLiMTs <25x Avg Cmax All ([2]; hLiMTs, all endpoints (ATP and HCS), cut-off <25x Avg Cmax): +ve | hLiMTs Cmax max All ([2]; hLiMTs, all endpoints, Cmax max used): +ve | hLiMTs Cmax min All ([2]; hLiMTs, all endpoints, Cmax min used): +ve | hLiMTs <10 uM All ([2]; hLiMTs, all endpoints, cut-off <10 uM): +ve (<10 uM) | hLiMTs <100x Avg Cmaxu All ([2]; hLiMTs, all endpoints, cut-off <100x Avg Cmaxu): +ve (<100x Avg Cmaxu) | THLE-Null [3, 26]: -VE | THLE-Null/3A4 [3, 26]: -VE | Human plasma Cmax,u ([4]; unbound plasma Cmax): 5048 nM | Cluster 1-6 +VE Assay ([5]; In vitro Assay, ref Garside 2014): -VE | Structural based (HCI) ([6]; In vitro Assay, ref O'Brien 2006): +VE | DILI in vitro assay prediction, O'Brien (2006) ([6]; Structural based (HCI), HepG2, ref O'Brien et al. 2006): +VE (lowest HCI endpoint IC50 (or in the absence of dose–response < 100 µM) < 30 × total human plasma exposure levels (Cmax.tot)) | Partition Hybrid HRM Score ([7]; In vitro Assay, ref Aleo 2019): -VE | Ro2 Hybrid HRM Score ([7]; In vitro Assay, ref Aleo 2019): +VE | Partition Hybrid HRM Score ≥4, Aleo (2019) [7, 27]: -VE | Partition Hybrid HRM Score ≥8, Aleo (2019) [7, 27]: -VE | Rule of Two hybrid HRM Score ≥3, Aleo (2019) [7, 27]: +VE (Rule of Two hybrid HRM Score ≥3) | Rule of Two hybrid HRM Score ≥8, Aleo (2019) [7, 27]: -VE | PHH/100xCmax, Proctor (2017) ([8]; 2D PHH, ATP, IC50 < 100 × Cmax.tot, ref Proctor et al. 2017): -VE | PHH/100uM, Proctor (2017) ([8]; 2D PHH, ATP, IC50 threshold 100 µM, ref Proctor et al. 2017): -VE | PHH ATP <100uM [8, 24]: -VE | Upcytes multi donor assay 14day data ([9]; In vitro Assay, ref Tolosa 2019): +VE | DILI Score (FDA) (1-8) ([10]; ref Chen 2011): 3 | Structural based (HCI) ([11]; In vitro Assay, ref Xu 2008): +VE | DILI in vitro assay prediction, Xu (2008) ([11]; Structural based (HCI), human hepatocytes, ref Xu et al. 2008): +VE | DILI severity category (Chen et al. [2016]) ([12]; LTKB DILIrank category, ref Chen et al. 2016): Most | DILI severity category (Chen 2016) ([12]; human DILI classification, LTKB DILIrank, ref Chen et al. 2016): Most | DILI severity category ([12]; human DILI severity, ref Chen et al.): Most | DILI +VE (5-8), DILI -VE (-4) ([12]; ref Chen 2016): +VE | DILI severity category ([12]; ref Chen 2016): vMost-DILI-Concern | Inhibition of rBsep cutoff<1& cmax u>.2 [13, 28]: -VE | Inhibition of rBsep cutoff<3 [13, 28]: -VE | HepaRG <25x Avg Cmax ATP ([14]; HepaRG, ATP endpoint, cut-off <25x Avg Cmax): +ve | HepaRG <100x Avg Cmaxu ATP ([14]; HepaRG, ATP endpoint, cut-off <100x Avg Cmaxu): +ve (<100x Avg Cmaxu) | HepaRG <25x Avg Cmax HCS ([14]; HepaRG, HCS endpoints, cut-off <25x Avg Cmax): +ve | HepaRG <100x Avg Cmaxu HCS ([14]; HepaRG, HCS endpoints, cut-off <100x Avg Cmaxu): +ve (<100x Avg Cmaxu) | HepaRG <25x Avg Cmax All ([14]; HepaRG, all endpoints (ATP and HCS), cut-off <25x Avg Cmax): +ve | HepaRG Cmax max All ([14]; HepaRG, all endpoints, Cmax max used): +ve | HepaRG Cmax min All ([14]; HepaRG, all endpoints, Cmax min used): +ve | HepaRG <10 uM All ([14]; HepaRG, all endpoints, cut-off <10 uM): +ve (<10 uM) | HepaRG <100x Avg Cmaxu All ([14]; HepaRG, all endpoints, cut-off <100x Avg Cmaxu): +ve (<100x Avg Cmaxu) | AC50 [14, 29]: 0.48 µM | minimal effective concentration [14, 30]: 0.278 µM | AC50 [14, 31]: 2 µM | minimal effective concentration [14, 32]: 0.0805 µM | DILI prediction HepaRG spheroids (HCS-MEC) [14, 25]: +VE (MEC < 25 × Cmax.tot cut-off) | Assigned DILI category ([15]; Chen et al. 2016 or literature alignment, ref Chen et al. 2016): 3 | In vivo DILI ([15]; […]): +VE | In vivo DILI ([15]; ref Aleo 2019): +VE | In vivo DILI ([15]; ref Dawson 2012): +VE | In vivo DILI ([15]; ref Garside 2014): +VE | In vivo DILI ([15]; ref Gustafsson 2014): +VE | In vivo DILI ([15]; ref O'Brien 2006): +VE | In vivo DILI ([15]; ref Proctor 2017): +VE | In vivo DILI ([15]; ref Tolosa 2012): +VE | In vivo DILI ([15]; ref Tolosa 2019): +VE | In vivo DILI ([15]; ref Vorrink 2018): +VE | In vivo DILI ([15]; ref Xu 2008): +VE | Structural based (HCI) ([16]; In vitro Assay, ref Tolosa 2012): +VE | DILI in vitro assay prediction, Tolosa (2012) ([16]; Structural based (HCI), HepG2, ref Tolosa et al. 2012): +VE | fu [17]: 0.700 | hLiMTs ATP <20 x Cmax ([18]; In vitro Assay, ref Vorrink 2018): +VE (IC20 < 20 × Cmax.tot cut-off) | DILI in vitro assay prediction, Vorrink (2018) ([18]; PHH spheroids, ATP, 14 days, IC20 < 20 × Cmax.tot, ref Vorrink et al. 2018): +VE (IC20 < 20 × Cmax.tot cut-off) | Cmax ([19]; read-out: Human plasma Cmax, total plasma Cmax.tot, median of 9 literature references): 7210 nM

Nc1c2c(nc3ccccc13)CCCC2 [tacrine, reference compound]
AC50 ([2]; read-out: ATP endpoint AC50): 41.8 µM | minimal effective concentration ([2]; read-out: ATP endpoint MEC): 44.7 µM | AC50 ([2]; read-out: HCS endpoint AC50): 52.4 µM | minimal effective concentration ([2]; read-out: HCS endpoint MEC): 38.5 µM | THLE-Null [3]: -VE | Human plasma Cmax,u ([4]; human): 36 nM | Cluster 1-6 +VE Assay [5]: +VE | Structural based (HCI) [6]: -VE | Ro2 Hybrid HRM Score [7]: +VE | Rule of Two hybrid HRM Score ≥8, Aleo (2019) [7]: -VE | PHH ATP <100uM [8]: -VE | PHH/100uM, Proctor (2017) [8]: -VE | Upcytes multi donor assay 14day data [9]: +VE | DILI Score (FDA) (1-8) ([10]; in vivo): 7 | Bayesian Machine Learning [20]: +VE | Bayesian Machine Learning DILI prediction, Williams (2019) [20]: +VE | hLiMTs <10 uM All [21]: -ve | hLiMTs <100x Avg Cmaxu ATP ([21]; human): -ve | hLiMTs <100x Avg Cmaxu All ([21]; human): -ve | hLiMTs <100x Avg Cmaxu HCS ([21]; human): -ve | hLiMTs Cmax max All ([21]; human): -ve | hLiMTs Cmax min All ([21]; human): -ve | DILI in vitro assay prediction, Xu (2008) [11]: -VE | Structural based (HCI) [11]: -VE | Inhibition of rBsep cutoff<3 [13, 28]: -VE | Inhibition of rBsep cutoff<1& cmax u>.2 [13]: -VE | AC50 [14, 29]: 51.8 µM | minimal effective concentration [14, 30]: 45.3 µM | AC50 [14, 31]: 65.6 µM | minimal effective concentration [14, 32]: 48.7 µM | Assigned DILI category ([15]; in vivo): 2 | Cellular toxicity (3T3 cells) [22]: -VE | Combined Assay [22]: +VE | DILI in vitro assay prediction, Schadt (2015) [22]: +VE | GSH adduct HML [22]: +VE | Hepatocyte cellular toxicity [22]: -VE | MitoTox 3T3 [22]: -VE | TDI CYP3A4 [22]: -VE | hBSEP inhibition [22]: -VE | HepaRG <10 uM All [23]: -ve | HepaRG <100x Avg Cmaxu ATP ([23]; human): -ve | HepaRG <100x Avg Cmaxu All ([23]; human): -ve | HepaRG <100x Avg Cmaxu HCS ([23]; human): -ve | HepaRG Cmax max All ([23]; human): -ve | HepaRG Cmax min All ([23]; human): -ve | DILI in vitro assay prediction, Vorrink (2018) [18]: -VE | Cmax ([19]; human, in vivo): 80 nM
